# Where a name gives a salt, the structure may show the parent alone.
# Key:
# human or animal plasma = assay: Anticoagulation determination: thrombin time (TT) in plasma; settings: compound added to plasma; linear extrapolation to doubling of thrombin time
# Procedure: Dog plasma and rat plasma are obtained from conscious mixed-breed hounds (either sex, hazelton-LRE, Kalamazoo, Mich., U.S.A.) or from anesthetized male Sprague-Dawley rats (Harlan Sprague-Dawley, Inc., Indianapolis, Ind., U.S.A.) by venipuncture into 3.8 percent citrate. Fibrinogen is prepared from in-date ACD human blood as the fraction I-2 according to previous procedures and specifications. Smith, Biochem. J., 185, 1-11 (1980); and Smith, et al., Biochemistry, 11, 2958-2967 (1972). Human fibrinogen is also purchased as 98 percent pure/plasmin free from American Diagnostica, Greenwich, Conn. Coagulation reagents ACTIN, Thromboplastin, and Human plasma are from Baxter Healthcare Corp., Dade Division, Miami, Fla. Bovine thrombin from Parke-Davis (Detroit, Mich.) is used for coagulation assays in plasma.
# Coagulation assay procedures are as previously described. Smith, et al., Thrombosis Research, 50, 163-174 (1988). A CoAScreener coagulation instrument (American LABor, Inc.) is used for all coagulation assay measurements. The thrombin time (TT) is measured by adding 0.05 ml saline and 0.05 ml thrombin (10 NIH units/ml) to 0.05 ml test plasma. The activated partial thromboplastin time (APTT) is measured by incubation of 0.05 ml test plasma with 0.05 ml Actin reagent for 120 seconds followed by 0.05 ml CaCl2 (0.02 M). The prothrombin time (PT) is measured by adding 0.05 ml saline and 0.05 ml Thromboplastin-C reagent to 0.05 ml test plasma. The compounds of formula I are added to human or animal plasma over a wide range of concentrations to determine prolongation effects on the TT, APTT and PT assays. Linear extrapolations are performed to estimate the concentrations required to double the clotting time for each assay. Each of the particularly preferred examples of the invention listed above was determined to have a TT value of less than 50 ng/mL. For example, the respective values (in ng/mL) for TT were 6, 6 and 23 for the compounds of Examples 1, 3 and 5.
# [1] = Octanol/water distribution coefficient logD at pH 7.4; type: physicochemical
# human thrombin = human thrombin (Homo sapiens, UniProt P00734); assay: Inhibition of the amidase activity of thrombin (chromogenic substrate), Kass; type: biochemical; settings: purified human thrombin, N-benzoyl-L-Phe-L-Val-L-Arg-p-nitroanilide, pH 7.4; mean value
# Procedure: The assay is carried out by mixing 50 μl buffer (0.03M Tris, 0.15M NaCl, pH 7.4) with 25 μl of human thrombin solution (purified human thrombin, Enzyme Research Laboratories, South Bend, Ind., at 8 NIH units/ml) and 25 μl of test compound in a solvent (50% aqueous methanol (v:v)). Then 150 μl of an aqueous solution of the chromogenic substate (at 0.25 mg/ml) are added and the rates of hydrolysis of the substrate are measured by monitoring the reactions at 405 nm for the release of p-nitroaniline. Standard curves are constructed by plotting free thrombin concentration against hydrolysis rate. The hydrolysis rates observed with test compounds are then converted to “free thrombin” values in the respective assays by use of the standard curves. The bound thrombin (bound to test compound) is calculated by subtracting the amount of free thrombin observed in each assay from the known initial amount of thrombin used in the assay. The amount of free inhibitor in each assay is calculated by subtracting the number of moles of bound thrombin from the number of moles of added inhibitor (test compound). […]
# Kass is calculated for a range of concentrations of test compounds and the mean value reported in units of liter per mole. […] For example, each of the particularly preferred examples of the invention listed above was determined to have a Kass of at least 100×10^6 L/mole.
Structure (SMILES),"TT value (concentration required to double the clotting time, thrombin time) (human or animal plasma) [ng/mL]",logD(7.4) [1],Kass (hypothetical equilibrium constant for the reaction between thrombin and the test compound) (human thrombin)
"N=C(N)c1ccc(CNC(=O)[C@@H]2CCCN2C(=O)[C@H](N)CC2CCCCC2)cc1O [Example 1, D-cyclohexylalanyl-N-[[4-(aminoiminomethyl)-3-hydroxyphenyl]methyl]-L-prolinamide dihydrochloride]",6,–,–
"Cl.N=C(N)c1ccc(CNC(=O)[C@@H]2CCCN2C(=O)[C@@H](CC2CCCCC2)NCC(=O)O)cc1O [Example 3, N-carboxymethyl-D-cyclohexylalanyl-N-[[4-(aminoiminomethyl)-3-hydroxyphenyl]methyl]-L-prolinamide hydrochloride]",6,0.55,"1,200×10^6 L/mole"
"CCS(=O)(=O)N[C@H](CC1CCCCC1)C(=O)N1CCC[C@H]1C(=O)NCc1ccc(C(=N)N)c(O)c1 [Example 5, N-ethylsulfonyl-D-cyclohexylalanyl-N-[[4-(aminoiminomethyl)-3-hydroxyphenyl]methyl]-L-prolinamide hydrochloride]",23,–,–
